Results reported in patent US12275731B2, “Azaindole inhibitors of wild-type and mutant forms of LRRK2” (DANA-FARBER CANCER INSTITUTE, INC., priority 2018, dated 2025).

Legend:
Assay in all cases: KinomeScan profiling
Format in all cases: binding
TNK1 = biological target: T1, TNK1 (Homo sapiens, UniProt Q13470); details: TNK1, 1 μM; read-out: % control
T1 sequence (Q13470 1-666): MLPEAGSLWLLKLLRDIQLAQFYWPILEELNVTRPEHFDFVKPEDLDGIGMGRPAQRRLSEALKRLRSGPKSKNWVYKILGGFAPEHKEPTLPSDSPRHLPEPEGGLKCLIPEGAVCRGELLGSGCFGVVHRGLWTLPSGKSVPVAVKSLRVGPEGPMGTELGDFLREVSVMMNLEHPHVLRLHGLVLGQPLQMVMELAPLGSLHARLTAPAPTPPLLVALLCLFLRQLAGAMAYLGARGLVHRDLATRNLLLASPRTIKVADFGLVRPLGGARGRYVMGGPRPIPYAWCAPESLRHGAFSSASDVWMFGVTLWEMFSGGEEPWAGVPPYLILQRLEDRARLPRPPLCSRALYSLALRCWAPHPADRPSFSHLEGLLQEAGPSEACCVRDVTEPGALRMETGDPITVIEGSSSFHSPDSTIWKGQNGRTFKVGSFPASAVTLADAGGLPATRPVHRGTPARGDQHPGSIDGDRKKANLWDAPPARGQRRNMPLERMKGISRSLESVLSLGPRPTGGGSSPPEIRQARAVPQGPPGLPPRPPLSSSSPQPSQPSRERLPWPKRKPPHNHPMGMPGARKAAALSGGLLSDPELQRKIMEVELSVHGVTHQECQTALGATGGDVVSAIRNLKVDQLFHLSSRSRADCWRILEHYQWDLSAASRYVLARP
In short: (§1)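 Compounds were screened at 1 μM in DMSO across a 468-kinase KinomeScan panel. Binding was expressed as % control, scaled between a positive control (0%) and DMSO (100%) using luminescence signal. A value under 35% counted as active.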

EPHA5 = EPHA5 (Homo sapiens, UniProt P54756); details: EPHA5, 1 μM; read-out: % control
Sequence of EPHA5 (P54756 25-1037): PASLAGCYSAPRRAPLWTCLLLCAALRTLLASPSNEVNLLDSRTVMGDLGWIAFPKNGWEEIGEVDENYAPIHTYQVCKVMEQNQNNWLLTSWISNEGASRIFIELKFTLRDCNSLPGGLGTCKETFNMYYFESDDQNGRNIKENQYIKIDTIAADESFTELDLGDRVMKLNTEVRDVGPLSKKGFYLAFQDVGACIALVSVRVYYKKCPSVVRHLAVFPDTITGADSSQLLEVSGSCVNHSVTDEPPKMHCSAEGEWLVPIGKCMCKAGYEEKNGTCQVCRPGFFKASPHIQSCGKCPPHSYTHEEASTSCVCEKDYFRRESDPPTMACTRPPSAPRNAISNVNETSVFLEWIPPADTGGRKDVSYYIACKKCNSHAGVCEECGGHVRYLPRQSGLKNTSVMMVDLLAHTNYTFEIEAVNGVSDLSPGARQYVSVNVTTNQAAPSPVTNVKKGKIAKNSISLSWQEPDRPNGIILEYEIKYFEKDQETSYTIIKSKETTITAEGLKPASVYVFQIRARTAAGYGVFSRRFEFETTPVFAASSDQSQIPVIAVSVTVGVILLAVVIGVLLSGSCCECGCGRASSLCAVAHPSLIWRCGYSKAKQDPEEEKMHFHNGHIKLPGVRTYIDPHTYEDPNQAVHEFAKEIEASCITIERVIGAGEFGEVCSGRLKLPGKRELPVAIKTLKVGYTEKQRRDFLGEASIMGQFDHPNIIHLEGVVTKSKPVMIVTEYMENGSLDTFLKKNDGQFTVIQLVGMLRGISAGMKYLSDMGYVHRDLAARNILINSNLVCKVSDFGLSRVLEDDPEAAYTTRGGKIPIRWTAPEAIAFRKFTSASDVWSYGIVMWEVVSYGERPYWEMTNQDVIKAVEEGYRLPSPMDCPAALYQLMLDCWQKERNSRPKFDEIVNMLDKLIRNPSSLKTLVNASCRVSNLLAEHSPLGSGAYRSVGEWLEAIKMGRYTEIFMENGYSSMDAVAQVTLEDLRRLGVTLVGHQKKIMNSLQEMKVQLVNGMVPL
In short: as §1

MKNK1 = MKNK1 (Homo sapiens, UniProt Q9BUB5); details: MKNK1, 1 μM; read-out: % control
Sequence of MKNK1 (Q9BUB5 whole entry): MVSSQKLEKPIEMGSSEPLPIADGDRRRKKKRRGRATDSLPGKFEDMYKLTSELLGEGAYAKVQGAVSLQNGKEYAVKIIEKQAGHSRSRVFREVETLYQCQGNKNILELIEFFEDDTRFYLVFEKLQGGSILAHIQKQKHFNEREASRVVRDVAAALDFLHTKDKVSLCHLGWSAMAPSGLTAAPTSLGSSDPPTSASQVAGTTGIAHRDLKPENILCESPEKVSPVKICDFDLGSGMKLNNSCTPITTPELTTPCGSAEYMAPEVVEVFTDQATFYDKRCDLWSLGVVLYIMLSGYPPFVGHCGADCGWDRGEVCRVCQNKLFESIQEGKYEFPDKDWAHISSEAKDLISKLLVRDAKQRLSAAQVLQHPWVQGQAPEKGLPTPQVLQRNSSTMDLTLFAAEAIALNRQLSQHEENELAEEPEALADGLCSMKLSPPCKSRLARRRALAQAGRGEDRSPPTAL
In short: as §1

BMPR1A = biological target: T2, BMPR1A (Homo sapiens, UniProt P36894); details: read-out: % control
T2 construct: purchased KinomeScan®
T2 sequence (P36894 24-532): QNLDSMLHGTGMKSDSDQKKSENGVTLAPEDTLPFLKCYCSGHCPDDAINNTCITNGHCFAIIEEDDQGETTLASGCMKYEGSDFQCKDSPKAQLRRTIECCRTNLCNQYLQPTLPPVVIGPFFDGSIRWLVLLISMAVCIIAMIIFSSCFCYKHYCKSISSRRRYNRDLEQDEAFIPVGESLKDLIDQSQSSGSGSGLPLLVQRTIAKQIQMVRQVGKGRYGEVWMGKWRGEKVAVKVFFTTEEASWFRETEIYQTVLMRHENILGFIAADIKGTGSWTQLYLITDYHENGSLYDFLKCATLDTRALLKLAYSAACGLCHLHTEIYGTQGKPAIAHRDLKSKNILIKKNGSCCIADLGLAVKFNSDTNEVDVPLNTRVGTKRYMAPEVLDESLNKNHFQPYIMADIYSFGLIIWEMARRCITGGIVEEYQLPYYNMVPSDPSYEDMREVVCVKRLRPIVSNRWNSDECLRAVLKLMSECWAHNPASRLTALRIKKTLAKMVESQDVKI
In short: as §1

YES = YES (Homo sapiens, UniProt P07947); details: read-out: % control
Sequence of YES (P07947 whole entry): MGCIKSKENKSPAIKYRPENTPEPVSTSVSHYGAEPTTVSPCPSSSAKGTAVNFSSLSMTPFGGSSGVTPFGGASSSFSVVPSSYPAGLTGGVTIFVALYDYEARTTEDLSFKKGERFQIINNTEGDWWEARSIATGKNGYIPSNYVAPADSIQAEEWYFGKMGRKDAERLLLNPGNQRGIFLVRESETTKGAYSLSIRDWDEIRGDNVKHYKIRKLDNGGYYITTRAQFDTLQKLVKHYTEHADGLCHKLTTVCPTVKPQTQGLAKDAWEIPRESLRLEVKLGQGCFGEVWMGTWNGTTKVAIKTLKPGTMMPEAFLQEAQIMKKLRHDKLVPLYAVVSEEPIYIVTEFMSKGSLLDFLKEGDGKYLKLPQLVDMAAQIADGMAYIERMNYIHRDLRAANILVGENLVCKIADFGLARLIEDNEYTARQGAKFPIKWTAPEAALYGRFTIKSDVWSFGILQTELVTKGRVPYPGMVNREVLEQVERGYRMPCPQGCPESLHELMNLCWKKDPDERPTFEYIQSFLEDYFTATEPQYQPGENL
In short: as §1

DAPK1 = DAPK1 (Homo sapiens, UniProt P53355); details: DAPK1, 1 μM; read-out: % control
Sequence of DAPK1 (P53355 whole entry): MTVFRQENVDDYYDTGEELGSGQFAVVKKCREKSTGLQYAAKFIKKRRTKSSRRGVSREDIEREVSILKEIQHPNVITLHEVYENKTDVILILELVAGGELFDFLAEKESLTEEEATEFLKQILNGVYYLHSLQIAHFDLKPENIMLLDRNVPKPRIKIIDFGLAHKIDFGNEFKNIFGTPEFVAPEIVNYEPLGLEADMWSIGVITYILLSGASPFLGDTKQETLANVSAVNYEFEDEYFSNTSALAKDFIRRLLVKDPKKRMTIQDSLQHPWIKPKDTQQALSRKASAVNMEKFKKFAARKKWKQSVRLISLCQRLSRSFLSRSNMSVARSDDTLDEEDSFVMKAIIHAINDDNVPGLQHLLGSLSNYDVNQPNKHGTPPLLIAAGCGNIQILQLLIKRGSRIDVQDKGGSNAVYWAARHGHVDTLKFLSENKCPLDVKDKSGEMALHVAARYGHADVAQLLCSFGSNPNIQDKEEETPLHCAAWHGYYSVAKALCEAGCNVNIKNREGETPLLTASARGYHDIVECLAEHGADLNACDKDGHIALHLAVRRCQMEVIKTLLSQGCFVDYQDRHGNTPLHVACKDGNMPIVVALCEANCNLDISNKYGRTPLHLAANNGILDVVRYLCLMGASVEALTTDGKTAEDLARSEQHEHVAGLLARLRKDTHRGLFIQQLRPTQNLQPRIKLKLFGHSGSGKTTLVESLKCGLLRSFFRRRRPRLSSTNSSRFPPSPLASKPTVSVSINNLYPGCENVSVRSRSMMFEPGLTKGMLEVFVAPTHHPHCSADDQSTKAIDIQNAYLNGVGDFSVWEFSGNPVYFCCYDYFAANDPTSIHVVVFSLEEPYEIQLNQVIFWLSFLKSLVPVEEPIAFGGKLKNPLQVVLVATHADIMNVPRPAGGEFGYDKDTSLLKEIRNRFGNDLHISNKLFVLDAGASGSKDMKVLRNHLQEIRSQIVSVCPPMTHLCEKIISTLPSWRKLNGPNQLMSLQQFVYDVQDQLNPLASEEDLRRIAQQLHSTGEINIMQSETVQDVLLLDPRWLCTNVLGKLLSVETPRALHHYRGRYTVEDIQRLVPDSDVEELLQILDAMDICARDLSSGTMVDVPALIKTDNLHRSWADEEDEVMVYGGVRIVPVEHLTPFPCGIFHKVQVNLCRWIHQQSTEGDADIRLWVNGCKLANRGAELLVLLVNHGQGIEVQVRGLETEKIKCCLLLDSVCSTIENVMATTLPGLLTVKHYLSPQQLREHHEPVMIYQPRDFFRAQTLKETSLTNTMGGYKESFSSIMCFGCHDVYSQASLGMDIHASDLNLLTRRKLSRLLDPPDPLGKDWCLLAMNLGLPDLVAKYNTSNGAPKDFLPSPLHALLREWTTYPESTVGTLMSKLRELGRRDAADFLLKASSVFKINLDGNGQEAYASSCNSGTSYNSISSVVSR
In short: as §1

BRAF(V600E) = biological target: T3, BRAF(V600E) (Homo sapiens, UniProt P15056, V600E); details: read-out: % control
T3 construct: purchased KinomeScan®
In short: as §1

MAP3K1 = MAP3K1 (Homo sapiens, UniProt Q13233); details: MAP3K1, 1 μM; read-out: % control
In short: as §1

MEK3 = biological target: T4, MEK3 (Homo sapiens, UniProt P46734); details: MEK3, 1 μM; read-out: % control
T4 sequence (P46734 1-347): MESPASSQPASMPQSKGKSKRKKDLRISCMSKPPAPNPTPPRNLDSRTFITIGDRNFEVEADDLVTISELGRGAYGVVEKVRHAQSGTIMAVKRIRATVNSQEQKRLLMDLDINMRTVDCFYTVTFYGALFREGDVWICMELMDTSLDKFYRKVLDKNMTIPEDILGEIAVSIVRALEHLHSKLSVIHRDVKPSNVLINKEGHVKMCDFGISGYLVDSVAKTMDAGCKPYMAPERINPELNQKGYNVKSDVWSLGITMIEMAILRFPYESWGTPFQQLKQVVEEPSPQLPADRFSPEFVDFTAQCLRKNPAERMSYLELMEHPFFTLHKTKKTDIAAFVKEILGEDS
In short: as §1

PRKD2 = biological target: T5, PRKD2 (Homo sapiens, UniProt Q9BZL6); details: PRKD2, 1 μM; read-out: % control
T5 sequence (Q9BZL6 1-878): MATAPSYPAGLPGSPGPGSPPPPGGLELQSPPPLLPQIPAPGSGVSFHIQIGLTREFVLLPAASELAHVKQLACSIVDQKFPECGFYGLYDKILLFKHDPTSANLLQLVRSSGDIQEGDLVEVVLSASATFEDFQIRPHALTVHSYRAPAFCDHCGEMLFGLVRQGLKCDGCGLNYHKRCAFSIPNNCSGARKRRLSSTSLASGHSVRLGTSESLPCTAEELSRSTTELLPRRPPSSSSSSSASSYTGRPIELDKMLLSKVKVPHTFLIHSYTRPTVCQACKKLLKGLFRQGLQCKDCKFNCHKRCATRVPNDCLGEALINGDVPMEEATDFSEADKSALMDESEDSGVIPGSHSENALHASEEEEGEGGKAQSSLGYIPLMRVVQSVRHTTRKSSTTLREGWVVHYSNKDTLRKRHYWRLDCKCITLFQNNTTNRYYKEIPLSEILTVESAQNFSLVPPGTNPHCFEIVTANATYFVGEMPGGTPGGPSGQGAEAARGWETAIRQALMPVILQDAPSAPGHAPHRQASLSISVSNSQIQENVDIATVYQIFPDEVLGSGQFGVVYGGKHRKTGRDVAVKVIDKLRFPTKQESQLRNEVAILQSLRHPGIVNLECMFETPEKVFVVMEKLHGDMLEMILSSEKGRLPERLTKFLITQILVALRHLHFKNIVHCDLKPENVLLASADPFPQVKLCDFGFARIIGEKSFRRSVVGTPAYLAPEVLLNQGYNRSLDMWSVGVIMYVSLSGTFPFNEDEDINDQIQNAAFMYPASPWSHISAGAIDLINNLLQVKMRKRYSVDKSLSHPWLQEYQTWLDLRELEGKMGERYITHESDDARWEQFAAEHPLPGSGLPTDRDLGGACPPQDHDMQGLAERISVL
In short: as §1

MLK2 = MLK2 (Homo sapiens, UniProt Q02779); details: MLK2, 1 μM; read-out: % control
Sequence of MLK2 (Q02779 whole entry): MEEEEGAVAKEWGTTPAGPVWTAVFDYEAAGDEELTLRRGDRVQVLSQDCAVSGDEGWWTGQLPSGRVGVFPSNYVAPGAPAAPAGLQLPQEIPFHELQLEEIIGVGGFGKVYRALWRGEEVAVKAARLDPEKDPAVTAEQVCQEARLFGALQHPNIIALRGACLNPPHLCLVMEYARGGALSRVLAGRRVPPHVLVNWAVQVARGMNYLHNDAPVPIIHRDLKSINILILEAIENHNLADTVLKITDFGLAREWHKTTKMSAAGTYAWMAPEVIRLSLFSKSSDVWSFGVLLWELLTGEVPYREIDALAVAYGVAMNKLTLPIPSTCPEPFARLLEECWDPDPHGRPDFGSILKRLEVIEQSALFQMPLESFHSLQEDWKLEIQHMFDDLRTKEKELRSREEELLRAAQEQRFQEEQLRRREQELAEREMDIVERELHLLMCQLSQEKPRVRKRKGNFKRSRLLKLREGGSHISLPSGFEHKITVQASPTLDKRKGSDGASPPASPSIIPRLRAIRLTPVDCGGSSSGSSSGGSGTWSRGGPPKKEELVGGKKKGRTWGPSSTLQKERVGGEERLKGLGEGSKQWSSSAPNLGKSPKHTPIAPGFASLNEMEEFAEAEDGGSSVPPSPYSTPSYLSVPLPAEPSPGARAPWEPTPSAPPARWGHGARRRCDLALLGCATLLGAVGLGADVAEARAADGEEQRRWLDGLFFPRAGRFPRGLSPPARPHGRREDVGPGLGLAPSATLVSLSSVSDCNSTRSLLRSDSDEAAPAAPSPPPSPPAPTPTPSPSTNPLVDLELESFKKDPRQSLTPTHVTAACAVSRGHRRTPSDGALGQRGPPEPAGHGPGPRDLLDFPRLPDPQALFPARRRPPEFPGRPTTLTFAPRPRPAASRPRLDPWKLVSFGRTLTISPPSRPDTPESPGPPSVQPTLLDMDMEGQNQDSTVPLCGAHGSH
In short: as §1

SMILES | remaining binding at 1 µM (TNK1) | remaining binding at 1 µM (EPHA5) | remaining binding at 1 µM (MKNK1) | remaining binding at 1 µM (BMPR1A) | remaining binding at 1 µM (YES) | remaining binding at 1 µM (DAPK1) | remaining binding at 1 µM (BRAF(V600E)) | remaining binding at 1 µM (MAP3K1) | remaining binding at 1 µM (MEK3) | remaining binding at 1 µM (PRKD2) | remaining binding at 1 µM (MLK2)
CNc1c(-c2ccc(C(=O)N3CCC(N4CCOCC4)CC3)cc2)cnc2[nH]cc(Cl)c12 [Compound 96, (4-(3-chloro-4-(methylamino)-1H-pyrrolo[2,3-b]pyridin-5-yl)phenyl)(4-morpholinopiperidin-1-yl)methanone] | 83% | 100% | 100% | 66% | 100% | 74% | 87% | 73% | 4.2% | 13% | 39%
O=C(c1ccc(-c2cnc3[nH]cc(Cl)c3c2NC2CCCC2)cc1)N1CCC(N2CCOCC2)CC1 [Compound 101, (4-(3-chloro-4-(cyclopentylamino)-1H-pyrrolo[2,3-b]pyridin-5-yl)phenyl)(4-morpholinopiperidin-1-yl)methanone] | 50% | 98% | 100% | 87% | 100% | 80% | 99% | 100% | 33% | 59% | 69%
CNc1c(-c2cnn([C@H]3CCN(C(C)=O)C[C@@H]3F)c2)cnc2[nH]cc(Cl)c12 [Compound 77, 1-((3S,4S)-4-(4-(3-chloro-4-(methylamino)-1H-pyrrolo[2,3-b]pyridin-5-yl)-1H-pyrazol-1-yl)-3-fluoropiperidin-1-yl)ethan-1-one] | 80% | 96% | 97% | 93% | 100% | 73% | 98% | 56% | 36% | 90% | 62%
